Source: patent publication US10294234B2, “HIV inhibitor compounds” (priority 2017, dated 2019)

system: HIV-1 (IIIB) in MT-4 cells; test: MT-4 HIV assay; assay type: cell-based; settings: Human immunodeficiency virus 1, MT4, 120 h; HIV-1 (IIIB), MT-4 cells, 5 days, Cell Titer Glo; read-out: EC50
How it was run: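 MT-4 cells infected with HIV-1 IIIB (1:250 stock dilution) were incubated with 1:3 serially diluted compounds in RPMI with 10% FBS for 5 days at 37 °C. Cell Titer Glo luminescence was the readout. Plates included mock-infected wells, no-drug wells and 5 uM AZT controls.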

Compound | EC50 [nM]
CC(C)([C@H](NC(=O)OC1CC1)C(=O)N[C@@H](Cc1ccc(C#Cc2ccc(N3CC4CCC(C3)N4C3COC3)nc2)cc1)[C@@H](O)CN(Cc1c(F)cc(-c2ccn(C(F)F)n2)cc1F)NC(=O)[C@@H](NC(=O)OC1CC1)C(C)(C)C(F)(F)F)C(F)(F)F [Example 156, Cyclopropyl ((2S)-1-(2-((2S,3S)-3-((S)-2-((cyclopropoxycarbonyl)amino)-4,4,4-trifluoro-3,3-dimethylbutanamido)-2-hydroxy-4-(4-((6-(8-(oxetan-3-yl)-3,8-diazabicyclo[3.2.1]octan-3-yl)pyridin-3-yl)ethynyl)phenyl)butyl)-2-(4-(1-(difluoromethyl)-1H-pyrazol-3-yl)-2,6-difluorobenzyl)hydrazinyl)-4,4,4-trifluoro-3,3-dimethyl-1-oxobutan-2-yl)carbamate] | 17
COC(=O)N[C@H](C(=O)N[C@@H](Cc1ccc(C#Cc2ccc(N3CC4CCC(C3)N4C3COC3)nc2)cc1)[C@@H](O)CN(Cc1ccc(-c2cnn(C(F)F)c2)cc1F)NC(=O)[C@@H](NC(=O)OC)C(C)(C)C(F)(F)F)C(C)(C)C(F)(F)F [Example 157, Methyl ((5S,8S,9S,14S)-11-(4-(1-(difluoromethyl)-1H-pyrazol-4-yl)-2-fluorobenzyl)-16,16,16-trifluoro-9-hydroxy-15,15-dimethyl-8-(4-((6-(8-(oxetan-3-yl)-3,8-diazabicyclo[3.2.1]octan-3-yl)pyridin-3-yl)ethynyl)benzyl)-3,6,13-trioxo-5-(1,1,1-trifluoro-2-methylpropan-2-yl)-2-oxa-4,7,11,12-tetraazahexadecan-14-yl)carbamate] | 4.53
COC(=O)N[C@H](C(=O)N[C@@H](Cc1ccc(C#Cc2cnc(N3CC4CCC(C3)N4C3COC3)nc2)cc1)[C@@H](O)CN(Cc1c(F)cc(-c2ccn(C(F)F)n2)cc1F)NC(=O)[C@@H](NC(=O)OC)C12CC(C(F)(F)F)(C1)C2)C12CC(C(F)(F)F)(C1)C2 [Example 160, Methyl ((5S,8S,9S,14S)-11-(4-(1-(difluoromethyl)-1H-pyrazol-3-yl)-2,6-difluorobenzyl)-9-hydroxy-8-(4-((2-(8-(oxetan-3-yl)-3,8-diazabicyclo[3.2.1]octan-3-yl)pyrimidin-5-yl)ethynyl)benzyl)-3,6,13-trioxo-5,14-bis(3-(trifluoromethyl)bicyclo[1.1.1]pentan-1-yl)-2-oxa-4,7,11,12-tetraazatetradecan-14-yl)carbamate] | 5700
COC(=O)N[C@H](C(=O)N[C@@H](Cc1ccc(C#Cc2ccc(N3CC4CCC(C3)N4)nc2)cc1)[C@@H](O)CN(Cc1c(F)cc(-c2cnn(C(F)F)c2)cc1F)NC(=O)[C@@H](NC(=O)OC)C(C)(C)C(F)(F)F)C(C)(C)C(F)(F)F [Example 162, Methyl ((5S,8S,9S,14S)-8-(4-((6-(3,8-diazabicyclo[3.2.1]octan-3-yl)pyridin-3-yl)ethynyl)benzyl)-11-(4-(1-(difluoromethyl)-1H-pyrazol-4-yl)-2,6-difluorobenzyl)-16,16,16-trifluoro-9-hydroxy-15,15-dimethyl-3,6,13-trioxo-5-(1,1,1-trifluoro-2-methylpropan-2-yl)-2-oxa-4,7,11,12-tetraazahexadecan-14-yl)carbamate] | 12.2
COC(=O)N[C@H](C(=O)N[C@@H](Cc1ccc(C#Cc2ccc(N3C[C@H]4CN(C)C[C@H]4C3)nc2)cc1)[C@@H](O)CN(Cc1c(F)cc(-c2ccn(C(F)F)n2)cc1F)NC(=O)[C@@H](NC(=O)OC)C(C)(C)C(F)(F)F)C(C)(C)C(F)(F)F [Example 164, Methyl ((5S,8S,9S,14S)-11-(4-(1-(difluoromethyl)-1H-pyrazol-3-yl)-2,6-difluorobenzyl)-16,16,16-trifluoro-9-hydroxy-15,15-dimethyl-8-(4-((6-((3 aR,6aS)-5-methylhexahydropyrrolo[3,4-c]pyrrol-2(1H)-yl)pyridin-3-yl)ethynyl)benzyl)-3,6,13-trioxo-5-(1,1,1-trifluoro-2-methylpropan-2-yl)-2-oxa-4,7,11,12-tetraazahexadecan-14-yl)carbamate] | 7.89
COC(=O)N[C@H](C(=O)N[C@@H](Cc1ccc(C#Cc2ccc(N3CC4CCC(C3)N4C(C)C)nc2)cc1)[C@@H](O)CN(Cc1c(F)cc(-c2cnn(C(F)F)c2)cc1F)NC(=O)[C@@H](NC(=O)OC)C(C)(C)C(F)(F)F)C(C)(C)C(F)(F)F [Example 166, Methyl ((5S,8S,9S,14S)-11-(4-(1-(difluoromethyl)-1H-pyrazol-4-yl)-2,6-difluorobenzyl)-16,16,16-trifluoro-9-hydroxy-8-(4-((6-(8-isopropyl-3,8-diazabicyclo[3.2.1]octan-3-yl)pyridin-3-yl)ethynyl)benzyl)-15,15-dimethyl-3,6,13-trioxo-5-(1,1,1-trifluoro-2-methylpropan-2-yl)-2-oxa-4,7,11,12-tetraazahexadecan-14-yl)carbamate] | 7.06
CC(C)([C@H](NC(=O)OC1COC1)C(=O)N[C@@H](Cc1ccc(C#Cc2ccc(N3CC4CCC(C3)N4C3COC3)nc2)cc1)[C@@H](O)CN(Cc1c(F)cc(-c2ccn(C(F)F)n2)cc1F)NC(=O)[C@@H](NC(=O)OC1COC1)C(C)(C)C(F)(F)F)C(F)(F)F [Example 169, oxetan-3-yl ((2S)-1-(2-(4-(1-(difluoromethyl)-1H-pyrazol-3-yl)-2,6-difluorobenzyl)-2-((2S,3S)-2-hydroxy-4-(4-((6-(8-(oxetan-3-yl)-3,8-diazabicyclo[3.2.1]octan-3-yl)pyridin-3-yl)ethynyl)phenyl)-3-((S)-4,4,4-trifluoro-33-dimethyl-2-(((oxetan-3-yloxy)carbonyl)amino)butanamido)butyl)hydrazinyl)-4,4,4-trifluoro-3,3-dimethyl-1-oxobutan-2-yl)carbamate] | 6.76
COC(=O)N[C@H](C(=O)N[C@@H](Cc1ccc(C#Cc2cnc(N3CC4CCC(C3)N4)nc2)cc1)[C@@H](O)CN(Cc1c(F)cc(-c2ccn(C(F)F)n2)cc1F)NC(=O)[C@@H](NC(=O)OC)C(C)(C)C(F)(F)F)C(C)(C)C(F)(F)F [Example 172, Methyl ((5S,8S,9S,14S)-8-(4-((2-(3,8-diazabicyclo[3.2.1]octan-3-yl)pyrimidin-5-yl)ethynyl)benzyl)-11-(4-(1-(difluoromethyl)-1H-pyrazol-3-yl)-2,6-difluorobenzyl)-16,16,16-trifluoro-9-hydroxy-15,15-dimethyl-3,6,13-trioxo-5-(1,1,1-trifluoro-2-methylpropan-2-yl)-2-oxa-4,7,11,12-tetraazahexadecan-14-yl)carbamate] | 5.86
COC(=O)N[C@H](C(=O)N[C@@H](Cc1ccc(C#Cc2ccc(N3CC4CCC(C3)N4C3COC3)cc2)cc1)[C@@H](O)CN(Cc1c(F)cc(-c2ccccn2)cc1F)NC(=O)[C@@H](NC(=O)OC)C(C)(C)C(F)(F)F)C(C)(C)C(F)(F)F [Example 177, Methyl ((5S,8S,9S,14S)-11-(2,6-difluoro-4-(pyridin-2-yl)benzyl)-16,16,16-trifluoro-9-hydroxy-15,15-dimethyl-8-(4-((4-(8-(oxetan-3-yl)-3,8-diazabicyclo [3.2.1]octan-3-yl)phenyl)ethynyl)benzyl)-3,6,13-trioxo-5-(1,1,1-trifluoro-2-methylpropan-2-yl)-2-oxa-4,7,11,12-tetraazahexadecan-14-yl)carbamate] | 8.12
COC(=O)N[C@H](C(=O)N[C@@H](Cc1ccc(C#Cc2ccc(N3CC4CCC(C3)N4C3COC3)cc2)cc1)[C@@H](O)CN(Cc1c(F)cc(-c2ccn(C(F)F)n2)cc1F)NC(=O)[C@@H](NC(=O)OC)C(C)(C)C(F)(F)F)C(C)(C)C(F)(F)F [Example 178, Methyl ((5S,8S,9S,14S)-11-(4-(1-(difluoromethyl)-1H-pyrazol-3-yl)-2,6-difluorobenzyl)-16,16,16-trifluoro-9-hydroxy-15,15-dimethyl-8-(4-((4-(8-(oxetan-3-yl)-3,8-diazabicyclo[3.2.1]octan-3-yl)phenyl)ethynyl)benzyl)-3,6,13-trioxo-5-(1,1,1-trifluoro-2-methylpropan-2-yl)-2-oxa-4,7,11,12-tetraazahexadecan-14-yl)carbamate] | 10.3
CCC(=O)N[C@H](C(=O)N[C@@H](Cc1ccc(C#Cc2cnc(N3CC4CCC(C3)N4C3COC3)nc2)cc1)[C@@H](O)CN(Cc1c(F)cc(-c2ccn(C(F)F)n2)cc1F)NC(=O)[C@@H](NC(=O)CC)C(C)(C)C(F)(F)F)C(C)(C)C(F)(F)F [Example 181, (2S)—N-((2S,3S)-4-(1-(4-(1-(difluoromethyl)-1H-pyrazol-3-yl)-2,6-difluorobenzyl)-2-((S)-4,4,4-trifluoro-3,3-dimethyl-2-propionamidobutanoyl)hydrazinyl)-3-hydroxy-1-(4-((2-(8-(oxetan-3-yl)-3,8-diazabicyclo[3.2.1]octan-3-yl)pyrimidin-5-yl)ethynyl)phenyl)butan-2-yl)-4,4,4-trifluoro-3,3-dimethyl-2-propionamidobutanamide] | 8.5
CC(=O)N[C@H](C(=O)N[C@@H](Cc1ccc(C#Cc2ccc(N3CC4CCC(C3)N4C3COC3)nc2)cc1)[C@@H](O)CN(Cc1c(F)cc(-c2ccn(C(F)F)n2)cc1F)NC(=O)[C@@H](NC(C)=O)C(C)(C)C(F)(F)F)C(C)(C)C(F)(F)F [Example 182, (2S)-2-acetamido-N-((2S,3S)-4-(2-((S)-2-acetamido-4,4,4-trifluoro-3,3-dimethylbutanoyl)-1-(4-(1-(difluoromethyl)-1H-pyrazol-3-yl)-2,6-difluorobenzyl)hydrazinyl)-3-hydroxy-1-(4-((6-(8-(oxetan-3-yl)-3,8-diazabicyclo[3.2.1]octan-3-yl)pyridin-3-yl)ethynyl)phenyl)butan-2-yl)-4,4,4-trifluoro-3,3-dimethylbutanamide] | 8.82
